Experiments:
[1] = system: breast tumor cells (MDA-MB-231); assay: In vitro cytotoxicity, cell viability by MTT assay; assay type: cell-based; conditions: with sonication for 20 min, then 24 hr culture; 75 μL NB suspension or CPT 1.3 μg/mL
Protocol: FIG. 6 is a diagram showing the cell viability of breast tumor cells (MDA-MB-231) cultured under different conditions. In FIG. 6(a), the control group was performed on the cells cultured without adding the model drug (CPT) and performing sonication. In FIG. 6(b), cells were sonicated for 20 min. In FIG. 6(c), cells were cultured with the medium containing 75 μL of CPT-loaded CHC/SPIO NB suspension without sonication for 20 min. In FIG. 6(d), cells were cultured with the medium containing 75 μL of CPT-loaded CHC/SPIO NB suspension with sonication for 20 min. In FIG. 6(e), cells were cultured with CPT-containing medium (CPT/medium concentration: 1.3 μg/mL) under sonication for 20 min. […] After above treatments, the cell mediums were removed and the cells were washed with PBS. Then, fresh medium was added and further cultured for 24 hr. The cell viability was measured by MTT assay.
Thus, CPT molecules could efficiently access tumor cells. Moreover, the amphiphilic CHC molecules from ruptured bubbles also might be helpful to increase transmembrane permeation.

[2] = Release test with and without sonication, confocal microscope observation of leakage and dispersion; assay type: physicochemical; conditions: sonication 1 MHz, 1 W/cm^2, duty ratio 20%, 20 min
Protocol: FIG. 5 is a diagram showing the confocal microscope observation for CPT-loaded CHC/SPIO NBs (FIG. 5(a)) and FITC-loaded CHC/SPIO NBs (FIG. 5(b), indicated by arrows). […] FIGS. 5(d) and (e) show the confocal microscope observation for CPT-loaded CHC/SPIO NBs after the release test without sonication and with sonication (ultrasonic frequency: 1 MHz, power density: 1 W/cm^2, duty ratio: 20%) for 20 min, respectively. […] Scale bar 5 μm.
The confocal photographs of the as-received CHC/SPIO MBs loaded with hydrophobic agent (CPT, blue fluorescence) and hydrophilic agent (FITC, green fluorescence) are shown in FIGS. 5(a) and 5(b), respectively. […] This implies that CHC/SPIO MBs can carry both hydrophobic and hydrophilic agents, and the encapsulation ability of CHC/SPIO MBs for CPT (a hydrophobic agent) was better than that for FITC (a hydrophilic agent). […] This was not observed for the CPT-containing medium (without CHC) under the same sonication for 20 min.

## CC[C@@]1(O)C(=O)OCc2c1cc1n(c2=O)Cc2cc3ccccc3nc2-1 [CPT, camptothecin]
[1]
  cytotoxicity / cell viability: higher viability than those treated with CPT-loaded CHC/SPIO NBs under sonication
[2]
  dispersion of CPT in hydrophilic medium: not well-dispersed under sonication
